Measured values reported in patent publication US8889878B2, “Haloalky-substituted amides as insecticides and acaricides” (Bayer CropScience AG, priority 2009, dated 2014).

Tests used:
[1] = tested on: armyworm (Spodoptera frugiperda); assay: Spodoptera frugiperda test (SPODFR spray treatment), Example 15; assay type: in vivo; conditions: maize leaf discs sprayed, after 7 days
Outline: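 Caterpillars placed on dried, sprayed Zea mays leaf discs; formulation of acetone, dimethylformamide and emulsifier diluted with emulsifier-containing water to test concentration. Percent kill scored on day 7.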

[2] = tested on: green peach aphid (Myzus persicae); assay: Myzus test (MYZUPE spray treatment), Example 17; assay type: in vivo; conditions: china cabbage leaf discs sprayed, after 6 days
Outline: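 Efficacy recorded at 6 days as % kill, where 100% means every aphid dead and 0% none. Spray applied to Brassica pekinensis leaf discs bearing mixed-stage aphids; active ingredient dissolved in acetone with dimethylformamide and emulsifier, then diluted with emulsifier-containing water.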

Musca domestica adults = assay: Musca domestica test (MUSCDO), Example 14; assay type: in vivo; conditions: application rate 100 ppm, treated sponge, after 2 days
Description: (§1) Musca domestica Test (MUSCDO) • Solvent: dimethyl sulphoxide To prepare an appropriate active ingredient formulation, 10 mg of active ingredient are mixed with 0.5 ml of dimethyl sulphoxide, and the concentrate is diluted with water to the desired concentration. Vessels containing a sponge which has been treated with the active ingredient formulation of the desired concentration are populated with Musca domestica adults. After 2 days, the kill rate in % is determined. 100% means that all flies were killed; 0% means that no flies were killed.

Boophilus microplus [3] = assay: Boophilus microplus test (BOOPMI injection), Example 11; assay type: in vivo; conditions: application rate 20 μg/animal, injected into abdomen, after 7 days
Outline: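 Efficacy rated from fertile egg laying: 100% means none of the ticks laid fertile eggs, read after 7 days. Compound, dissolved and diluted in DMSO, was delivered by abdominal injection, and ticks were kept in dishes under climate control.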

[4] = logP by HPLC on reverse-phase column (EEC Directive 79/831 Annex V.A8); assay type: physicochemical; conditions: HPLC-MS
Description: The logP values reported in the above Tables and Preparation Examples were determined according to EEC Directive 79/831 Annex V.A8 by HPLC (High Performance Liquid Chromatography) on a reverse-phase column (C18). Temperature 43° C.

Lucilia cuprina larvae = assay: Lucilia cuprina test (LUCICU), Example 13; assay type: in vivo; conditions: application rate 100 ppm, treated horsemeat, after 2 days
Description: as §1, with “Lucilia cuprina” for “Musca domestica”, “(LUCICU)” for “(MUSCDO)”, “horsemeat” for “a sponge”, “about 20 Lucilia cuprina larvae.” for “Musca domestica adults.”, “larvae” for “flies”

[5] = tested on: red spider mite (Tetranychus urticae); assay: Tetranychus test, OP-resistant (TETRUR spray treatment), Example 8; assay type: in vivo; conditions: application rate 20 g/ha, common bean leaf discs sprayed, after 6 days
Outline: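 Bean (Phaseolus vulgaris) leaf discs carrying all stages of OP-resistant Tetranychus urticae sprayed with compound in acetone/DMF with emulsifier, diluted in water to the test concentration. Mortality scored after 6 days as % efficacy (100% = all mites killed).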

[6] = tested on: mustard beetle (Phaedon cochleariae); assay: Phaedon test (PHAECO spray treatment), Example 7; assay type: in vivo; conditions: application rate 20 g/ha, china cabbage leaf discs sprayed, after 7 days
Outline: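 Spray formulation (acetone/DMF with alkylaryl polyglycol ether, diluted in emulsifier-containing water) applied to Chinese cabbage leaf discs, which were dried and then stocked with mustard beetle larvae. Efficacy scored at 7 days as % larvae killed (100% all, 0% none).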

Ctenocephalides felis = Ctenocephalides felis oral (CTECFE), Example 2; assay type: in vivo; conditions: application rate 20 ppm in citrated cow's blood, after 2 days
Description: Ctenocephalides felis Oral ([…]) • Solvent: 1 part by weight of dimethyl sulphoxide For the purpose of preparing an active ingredient formulation, 10 mg of active ingredient are mixed with 0.5 ml of dimethyl sulphoxide. A portion of the concentrate was diluted with citrated cow's blood and the desired concentration was prepared. 20 unfed adult fleas (Ctenocephalides felis) are placed into a chamber sealed at the top and bottom with gauze. A metal cylinder with its lower end sealed with Parafilm is placed onto the chamber. The cylinder contains the blood-active ingredient preparation, which can be consumed by the fleas through the Parafilm membrane. After 2 days, the kill rate in % is determined. 100% means that all fleas were killed; 0% means that no fleas were killed.

Boophilus microplus [7] = assay: Boophilus microplus test (BOOPMI injection), Example 1; assay type: in vivo; conditions: application rate 20 μg/animal, injected into abdomen, after 7 days
Description: Boophilus microplus Test (BOOPMI Injection) • Solvent: dimethyl sulphoxide To prepare an active ingredient formulation, 10 mg of active ingredient are mixed with 0.5 ml of solvent and the concentrate is diluted with water to the desired concentration. The active ingredient solution was injected into the abdomen (Boophilus microplus), and the animals were transferred to dishes and stored in a climate-controlled room. The efficacy was assessed by the number of fertile eggs laid. After 7 days, the efficacy in % is determined. 100% means that no tick laid fertile eggs.

SMILES	efficacy in % ([1]; application rate 100 g/ha) [%]	efficacy in % ([2]; application rate 100 g/ha) [%]	kill rate in % (efficacy) (Musca domestica adults) [%]	efficacy in % (fertile eggs laid) (Boophilus microplus [3]) [%]	logP [4]	kill rate in % (efficacy) (Lucilia cuprina larvae) [%]	efficacy in % [5] [%]	efficacy in % [6] [%]	efficacy in % ([2]; application rate 500 g/ha) [%]	efficacy in % ([1]; application rate 500 g/ha) [%]	kill rate in % (efficacy) (Ctenocephalides felis) [%]	efficacy in % (fertile eggs laid) (Boophilus microplus [7]) [%]
CC(NC(=O)c1ccc(/C=C/C(=O)NC(c2cccc(C(F)(F)F)c2)C(F)(F)F)cc1Cl)C(F)(F)F (stereo not shown) [Ia-158]	100	80	100	100	HPLC-MS: logP = 3.78; mass							
CC(NC(=O)c1ccc(/C=C/C(=O)NC(c2cccc(C(F)(F)F)c2)C(F)(F)F)cc1Br)c1ccccn1 (stereo not shown) [Ia-134]				100	HPLC-MS: logP = 3.11; mass	90						
CC(Cn1cccn1)NC(=O)c1ccc(/C=C/C(=O)NC(c2cccc(C(F)(F)F)c2)C(F)(F)F)cc1C(F)(F)F (stereo not shown) [Ia-139]				100	HPLC-MS: logP = 3.42; mass	80						
CNC(=O)c1ccc(/C=C/C(=O)NC(c2cccc(C(F)(F)F)c2)C(F)(F)F)cc1C(F)(F)F (stereo not shown) [Ia-147]	100			100	HPLC-MS: logP = 3.09; mass	80						
O=C(/C=C/c1ccc(C(=O)NC2CSC2)c(Cl)c1)NC(c1cccc(C(F)(F)F)c1)C(F)(F)F (stereo not shown) [Ia-152]		80		100	HPLC-MS: logP = 3.51; mass	90						
O=C(/C=C/c1ccc(C(=O)NC2COC2)c(Br)c1)NC(c1cccc(C(F)(F)F)c1)C(F)(F)F (stereo not shown) [Ia-94]				100	HPLC-MS: logP = 2.8 mass	95	80	100				
O=C(/C=C/c1ccc(C(=O)NCC2CC2)c(Cl)c1)NC(c1cccc(C(F)(F)F)c1)C(F)(F)F (stereo not shown) [Ia-163]		100	100	100	HPLC-MS: logP = 3.54; mass							
O=C(/C=C/c1ccc(C(=O)NCC(F)F)c(C(F)(F)F)c1)NC(c1cccc(C(F)(F)F)c1)C(F)(F)F (stereo not shown) [Ia-57]			100	100	HPLC-MS: logP = 3.48; mass		90	100	100			
O=C(/C=C/c1ccc(C(=O)NCc2ccccn2)c(C(F)(F)F)c1)NC(c1ccc(Cl)c(Cl)c1)C(F)(F)F (stereo not shown) [Ia-32]				100	HPLC-MS: logP = 2.98; mass					83	100	100
CC(CC1CC1)NC(=O)c1ccc(/C=C/C(=O)NC(c2cccc(C(F)(F)F)c2)C(F)(F)F)cc1C(F)(F)F (stereo not shown) [Ia-148]	100		90	100	HPLC-MS: logP = 4.24; mass							
CC(C#N)NC(=O)c1ccc(/C=C/C(=O)NC(c2cccc(C(F)(F)F)c2)C(F)(F)F)cc1C(F)(F)F (stereo not shown) [Ia-141]	100	100	100	100	HPLC-MS: logP = 3.39; mass							
COCCNC(=O)c1ccc(/C=C/C(=O)NC(c2cccc(C(F)(F)F)c2)C(F)(F)F)cc1C(F)(F)F (stereo not shown) [Ia-58]				100	HPLC-MS: logP = 3.12; mass		90	100	100	83	98	100
CC(NC(=O)c1ccc(/C=C/C(=O)NC(c2cccc(C(F)(F)F)c2)C(F)(F)F)cc1C(F)(F)F)c1ccccn1 (stereo not shown) [Ia-128]				100	HPLC-MS: logP = 3.22; mass	90						
N#CC1CC1NC(=O)c1ccc(/C=C/C(=O)NC(c2cccc(C(F)(F)F)c2)C(F)(F)F)cc1C(F)(F)F (stereo not shown) [Ia-140]	100	90	100	100	HPLC-MS: logP = 3.37; mass							
